Test results as given in article PMC11524583, “Neurons enhance blood–brain barrier function via upregulating claudin-5 and VE-cadherin expression due to glial cell line-derived neurotrophic factor secretion” (eLife, 2024).
“And” between values parts separate entries of the source, which are not always exact repeats. Equal entries are not always repeated. Where two headings read alike, the source gives them in different places. Marks after values point to notes of the source that are not given here.

What was measured:
[1] = test system: hCMEC/D3 mono-culture BBB model
[2] = test system: triple co-culture BBB model (hCMEC/D3, U251 and SH-SY5Y cells)
[3] = in vitro; conditions: human
[4] = in vitro; conditions: human; remark: listed apart in the source
[5] = unbound fraction in brain, cited from earlier work
[6] = in situ brain perfusion in rodents, published permeability multiplied by VSA 150 cm^2/g, cited from earlier work
[7] = test system: hCMEC/D3 mono-culture BBB model; assay: TEER of hCMEC/D3 mono-culture BBB model; type: cell-based, Homo sapiens; conditions: hCMEC/D3 mono-culture, 200 pg/ml GDNF, day 6; 3 μM SPP-86 or 5 μM PP2
[8] = test system: triple co-culture BBB model (hCMEC/D3, U251 and SH-SY5Y cells); assay: TEER of triple co-culture BBB model; type: cell-based, Homo sapiens; conditions: for TEER: Triple+PP2, single replicates, Figure 2S
Experimental: The establishment process of the triple co-culture model is illustrated in Figure 9. SH-SY5Y cells were seeded at a density of 4.5 × 10^4 cells/cm^2 in plates and differentiated with 10 μM retinoic acid (Sigma-Aldrich, St. Louis, MO, USA) for 72 hr. The differentiated SH-SY5Y cells were cultured in the fresh DMEM/F12 medium containing 10% FBS. U251 cells were seeded at 2 × 10^4 cells/cm^2 on the bottom of Transwell inserts (PET, 0.4 µm pore size, SPL Life Sciences, Pocheon, Korea) coated with rat-tail collagen (Corning Inc, Corning, NY, USA). Next, the inserts were suspended in plate wells containing the culture medium after 5 hr of incubation. After 24 hr of incubation, hCMEC/D3 cells were seeded on the apical side of the inserts at 3 × 10^4 cells/cm^2 and cultured for another 48 hr. Then, the inserts seeded with U251 and hCMEC/D3 cells were suspended in plates seeded with differentiated SH-SY5Y cells and co-cultured for another 6 days. The culture medium was replaced every 24 hr. TEER was periodically measured using a Millicell-ERS (MERS00002) instrument (Millipore, Billerica MA, USA) to monitor cell confluence and development of TJs.

[9] = test system: claudin-5; assay: Western blot of claudin-5 expression in hCMEC/D3 cells; type: cell-based, Homo sapiens
Experimental: (§1) Whole-cell and tissue lysates, nucleoprotein, and cytoplasmic protein were prepared using RIPA Lysis Buffer (Beyotime, Shanghai, China) as the described method ([Wu et al., 2021]). Proteins were separated through sodium dodecyl sulfate–polyacrylamide gel electrophoresis and transferred onto nitrocellulose or polyvinylidene difluoride membranes. The membranes were blocked with 5% skim milk and incubated with corresponding primary antibodies at 4°C overnight. After being washed with Tris-buffered saline Tween buffer, the membranes were incubated with secondary antibodies (Cell Signaling Technology, MA, USA) at 1:3000 dilution: Anti-mouse IgG, HRP-linked Antibody (#7076), Anti-rabbit IgG, HRP-linked Antibody (#7074). Protein levels were visualized using a highly sensitive ECL western blotting substrate and a gel imaging system (Tanon Science & Technology, Shanghai, China).
(§2) CM of U251 cells (U-CM), SH-SY5Y cells (S-CM), or co-culture of U251 and SH-SY5Y cells (US-CM) was prepared. U251 cells were seeded at the top of the insert membrane and suspended on 6-well plates seeded with differentiated SH-SY5Y cells to co-culture U251 cells with SH-SY5Y cells. The medium was collected every 24 hr. The CMs were subsequently used for hCMEC/D3 cell culture after filtrating with 0.2 μm filters for 144 hr. The levels of GDNF, bFGF, IGF-1, and TGF-β in CMs were measured using corresponding ELISA kits according to the manufacturers’ instructions.
(§3) Exogenous and endogenous GDNF in the medium was neutralized with anti-GDNF antibody (#AF-212-NA, R&D system, Minneapolis, MN, USA). 0.25, 0.5, and 1.0 μg/ml anti-GDNF antibody was added into the US-CM or medium containing 200 pg/ml GDNF, and then the medium was preincubated at 4°C for 1 hr. The hCMEC/D3 cells were incubated with 200 pg/ml GDNF or US-CM containing anti-GDNF antibody or not for 6 days, and then cell lysate was collected for western blot. The medium was replaced every 24 hr.
(§4) Here, hCMEC/D3 cells were plated in the plates or culture dishes at 6 × 10^4 cells/cm^2 and transfected with 10 nM of negative control or human FOXO1, ETS1, and CDH5 siRNA (Tsingke Biotechnology, Beijing, China) for 12 hr using Lipofectamine 3000 (Invitrogen, Carlsbad, CA, USA) reagent according to the manufacturer’s instructions. Cells were then incubated with a medium containing GDNF for 72 hr.
The plasmids encoding FOXO1 (EX-Z7404-M02) were constructed by GeneCopoeia (Rockville, MD, USA). The hCMEC/D3 cells were plated in plates or dishes at 6 × 10^4 cells/cm^2. They were subsequently transfected with 1 µg of negative control or plasmids encoding FOXO1 6 hr using Lipofectamine 3000 reagent according to the manufacturer’s instructions. Transfected cells were then incubated with the medium containing GDNF for 72 hr.

[10] = test system: VE-cadherin; assay: Western blot of VE-cadherin expression in hCMEC/D3 cells; type: cell-based, Homo sapiens
Experimental: as §1, §2, §3, §4

[11] = test system: triple co-culture BBB model (hCMEC/D3, U251 and SH-SY5Y cells); assay: In vitro BBB permeability study (Papp), triple co-culture BBB model
[12] = test system: hCMEC/D3 mono-culture BBB model; assay: In vitro BBB permeability study (Papp), hCMEC/D3 mono-culture BBB model
[13] = test system: hCMEC/D3 cells; assay: EdU incorporation assay; type: cell-based, Homo sapiens; conditions: for EdU incorporation, EdU + fraction / EdU incorporation, EdU − fraction: 6 days
Experimental: The cells were incubated with medium containing 10 μM Edu for 2 hr. […] The EdU incorporation assay was measured using the BeyoClick EdU Cell Proliferation Kit (Beyotime Biotechnology, Shanghai, China) according to the manufacturer’s instructions. The samples were determined on the FACSCelesta flow cytometer (Becton, Dickins on and Company, USA), and data were analyzed by Flowjo 10.4 software.

[14] = hCMEC/D3 cells, 200 pg/ml GDNF, 3 μM SPP-86, 5 μM PP2, 3 μM LY294002, 2 μM U0126, 5 μM SP600125, 2 μM SB203580, anti-GDNF antibody 0.25, 0.5, 1.0 μg/ml
[15] = hCMEC/D3 cells, US-CM, 3 μM SPP-86, 5 μM PP2, 3 μM LY294002, 2 μM U0126, anti-GDNF antibody 0.25, 0.5, 1.0 μg/ml
[16] = hCMEC/D3 cells incubated with conditioned medium or neurotrophic factor vs normal medium

CN(C)CCC=C1c2ccccc2CCc2ccccc21 [Amitriptyline]
PSPre, Mono ([1]; human): 13,716.00 μl/min/g
PS ([1]; human, 30 min): 13716.00 µL/min/g
PSPre, Triple ([2]; human): 13,149.00 μl/min/g
PS ([2]; human, 30 min): 13149.00 µL/min/g
Papp A→B at 30 min ([3]; Papp (individual replicate)): 16.6 ×10⁻⁶ cm/s
Papp A→B at 30 min ([3]; Papp Mean): 15.2 ×10⁻⁶ cm/s
Papp A→B at 30 min ([3]; Papp, Mono): 15.2 ± 0.64 ×10⁻⁶ cm/s
Papp A→B at 30 min ([4]; Papp (individual replicate)): 14 ×10⁻⁶ cm/s
Papp A→B at 30 min ([4]; Papp Mean): 14.6 ×10⁻⁶ cm/s
Papp A→B at 30 min ([4]; Papp, Triple): 14.6 ± 0.27 ×10⁻⁶ cm/s
fu, brain ([5]; ref Fridén et al., 2011): 0.01^‡
fu, brain ([5]; ref Sánchez-Dengra et al., 2021): 0.002
fu, brain ([5]; ref Weber et al., 2013): 0.0071
PSObs ([6]; ref Avdeef and Sun, 2011): 4608.00^*** μl/min/g

NC12CC3CC(CC(C3)C1)C2 [Amantadine]
PSPre, Mono ([1]; human): 310.22 µL/min/g
PS ([1]; human, 30 min): 310.22 µL/min/g
PS ([2]; human, 30 min): 165.23 µL/min/g
Papp A→B at 30 min ([3]; Papp, Mono): 6.84 ± 0.95 ×10⁻⁶ cm/s
Papp A→B at 30 min ([4]; Papp (individual replicate)): 3.04 ×10⁻⁶ cm/s
Papp A→B at 30 min ([4]; Papp, Triple): 3.64 ± 0.26 ×10⁻⁶ cm/s
fu, brain ([5]; ref Esaki et al., 2019): 0.1985^*
PSObs ([6]; ref Summerfield et al., 2007): 116.10^† μl/min/g

CN(C)CCC=C1c2ccccc2COc2ccccc21 [Doxepin]
PSPre, Mono ([1]; human): 6076.80 µL/min/g
PS ([1]; human, 30 min): 6076.80 µL/min/g
PS ([2]; human, 30 min): 3837.60 µL/min/g
Papp A→B at 30 min ([3]; Papp Mean): 16.9 ×10⁻⁶ cm/s
Papp A→B at 30 min ([3]; Papp, Mono): 16.9 ± 1.08 ×10⁻⁶ cm/s
fu, brain ([5]; ref Summerfield et al., 2007): 0.025^†
PSObs ([6]; ref Summerfield et al., 2007): 2192.40^† μl/min/g

CCN(CC)CCNC(=O)c1cc(Cl)c(N)cc1OC [Metoclopramide]
PSPre, Mono ([1]; human): 348.66 µL/min/g
PS ([1]; human, 30 min): 348.66 µL/min/g
PS ([2]; human, 30 min): 163.41 µL/min/g
Papp A→B at 30 min ([3]; Papp Mean): 14.1 ×10⁻⁶ cm/s
Papp A→B at 30 min ([3]; Papp, Mono): 14.1 ± 1.44 ×10⁻⁶ cm/s
fu, brain ([5]; ref Summerfield et al., 2007): 0.365^†
PSObs ([6]; ref Summerfield et al., 2007): 125.10^† μl/min/g

CC(C)(C)n1nc(-c2ccc(Cl)cc2)c2c(N)ncnc21 [PP2]
GDNF-increased TEER values, effect of inhibitor [7]: almost abolished
TEER ([8]; Day3): 61.05 Ω·cm2 and 61.38 Ω·cm2 and 59.07 Ω·cm2 and 63.36 Ω·cm2
TEER ([8]; Day4): 66.66 Ω·cm2 and 65.01 Ω·cm2 and 64.68 Ω·cm2 and 62.04 Ω·cm2
TEER ([8]; Day5): 81.51 Ω·cm2 and 78.21 Ω·cm2 and 77.88 Ω·cm2 and 76.89 Ω·cm2
TEER ([8]; Day6): 78.21 Ω·cm2 and 80.19 Ω·cm2 and 76.23 Ω·cm2 and 79.2 Ω·cm2
increased TEER values in the triple co-culture BBB model, effect of inhibitor ([8]; day 6, 3 μM SPP-86 or 5 μM PP2): completely reversed
GDNF-induced claudin-5 expression [9, 14]: markedly attenuated
US-CM-induced claudin-5 expression [9, 15]: markedly attenuated
GDNF-induced VE-cadherin expression [10, 14]: markedly attenuated
US-CM-induced VE-cadherin expression [10, 15]: markedly attenuated
decreased permeability of fluorescein and FITC-Dex in the triple co-culture BBB model, effect of inhibitor ([11]; 3 μM SPP-86 or 5 μM PP2): completely reversed
GDNF-decreased permeability of fluorescein and FITC-Dex, effect of inhibitor ([12]; hCMEC/D3 mono-culture, 200 pg/ml GDNF, 3 μM SPP-86 or 5 μM PP2): almost abolished

NC(=O)N1c2ccccc2C=Cc2ccccc21 [Carbamazepine]
PSPre, Mono ([1]; human): 2666.89 µL/min/g
PS ([1]; human, 30 min): 2666.89 µL/min/g
PS ([2]; human, 30 min): 908.69 µL/min/g
Papp A→B at 30 min ([3]; Papp, Mono): 34.4 ± 1.26 ×10⁻⁶ cm/s
Papp A→B at 30 min ([4]; Papp, Triple): 11.7 ± 0.15 ×10⁻⁶ cm/s
fu, brain ([5]; ref Maurer et al., 2005): 0.116^¶
PSObs ([6]; ref Summerfield et al., 2007): 959.40^† μl/min/g

CC(NC(C)(C)C)C(=O)c1cccc(Cl)c1 (centres unmarked) [Buproprion]
PS [1]: 1139.58 µL/min/g
PS [2]: 850.58 µL/min/g
Papp A→B ([11]; read-out: Papp Mean, Triple co-culture BBB model, mean of 4 replicates): 11.3 ×10⁻⁶ cm/s
Papp A→B ([12]; read-out: Papp Mean, Mono-culture BBB Model, mean of 4 replicates): 15.2 ×10⁻⁶ cm/s

CN1CCN(C2=Nc3cc(Cl)ccc3Nc3ccccc32)CC1 [Clozapine]
PSPre, Mono ([1]; human): 25,052.57 μl/min/g
PS ([1]; human, 30 min): 25052.57 µL/min/g
PS ([2]; human, 30 min): 8272.72 µL/min/g
Papp A→B at 30 min ([3]; Papp (individual replicate)): 38.9 ×10⁻⁶ cm/s
Papp A→B at 30 min ([3]; Papp, Mono): 39 ± 0.54 ×10⁻⁶ cm/s
Papp A→B at 30 min ([4]; Papp, Triple): 12.9 ± 2.06 ×10⁻⁶ cm/s
fu, brain ([5]; ref Bhyrapuneni et al., 2018): 0.0056
fu, brain ([5]; ref Cremers et al., 2012): 0.014^**

CN1CCN2c3ncccc3Cc3ccccc3C2C1 (centres unmarked) [Mirtazapine]
PSPre, Mono ([1]; human): 2637.00 µL/min/g
PS ([1]; human, 30 min): 2637.00 µL/min/g
PS ([2]; human, 30 min): 2009.25 µL/min/g
Papp A→B at 30 min ([3]; Papp, Mono): 23.4 ± 0.44 ×10⁻⁶ cm/s
Papp A→B at 30 min ([4]; Papp, Triple): 17.9 ± 0.21 ×10⁻⁶ cm/s
fu, brain ([5]; ref Summerfield et al., 2007): 0.08^†
PSObs ([6]; ref Summerfield et al., 2007): 1912.50^† μl/min/g

bFGF: basic fibroblast growth factor, recombinant protein
claudin-5 expression [9, 16]: without affecting
VE-cadherin expression [10, 16]: without affecting
EdU incorporation, EdU + fraction ([13]; bFGF 6 ng/mL): 21.1
EdU incorporation, EdU − fraction ([13]; bFGF 6 ng/mL): 78.9
EdU incorporation, EdU + fraction ([13]; bFGF 20 ng/mL): 28.3
EdU incorporation, EdU − fraction ([13]; bFGF 20 ng/mL): 71.7
EdU incorporation, EdU + fraction ([13]; bFGF 60 ng/mL): 31.0
EdU incorporation, EdU − fraction ([13]; bFGF 60 ng/mL): 69.0
cell proliferation ([13]; bFGF (6, 20, and 60 ng/ml) for 6 days, EdU incorporation and cell viability): increased cell proliferation
